Laboratory results published in patent publication US20110112135A1, “Imidazo [1,2-A] Pyridine Compounds” (priority 2007, published 2011).

What was measured:
human LXRβ = target: T1, human LXRβ (Homo sapiens, UniProt P55055); assay: Ligand-binding test procedure for human LXRβ (3H T0901317 tracer, flash plates); conditions: biotinylated hLXRβ from E. coli extract; tracer 3H T0901317
T1 construct: biotin (biotinylated); made in house; host or cells: E. coli (crude extract)
T1 sequence (P55055 1-460): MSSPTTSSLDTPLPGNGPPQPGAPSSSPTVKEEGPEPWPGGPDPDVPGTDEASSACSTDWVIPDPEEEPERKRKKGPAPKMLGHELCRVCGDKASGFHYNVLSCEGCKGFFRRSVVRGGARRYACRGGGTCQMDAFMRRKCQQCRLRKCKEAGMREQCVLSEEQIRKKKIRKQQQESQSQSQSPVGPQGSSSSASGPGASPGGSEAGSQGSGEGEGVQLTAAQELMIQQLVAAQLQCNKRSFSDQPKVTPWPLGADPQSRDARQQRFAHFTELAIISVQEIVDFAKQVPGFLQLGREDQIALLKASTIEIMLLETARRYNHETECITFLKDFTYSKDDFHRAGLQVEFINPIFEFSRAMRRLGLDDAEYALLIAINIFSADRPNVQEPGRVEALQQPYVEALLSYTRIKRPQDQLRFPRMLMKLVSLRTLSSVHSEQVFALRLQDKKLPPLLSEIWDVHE
Procedure: I. Ligand-Binding Test Procedure for Human LXRβ.
Receptor source: E. coli extract from cells expressing biotinylated hLXRβ. Extract was made in a similar buffer as above, but with 50 mM TRIS.
(§1) Washed streptavidin and coated flash plates with wash buffer. Diluted receptor extract to give Bmax ˜4000 cpm and add to the wells. Wrapped the plates in aluminum foil and stored them at +4° C. over night.
(§2) Made a dilution series in DMSO of the test ligands. Made a 5 nM solution of the radioactive tracer in buffer. Mixed 250 μl diluted tracer with 5 μl of the test ligand from each concentration of the dilution series. Washed the receptor-coated flash plates. Added 200 μl per well of the ligand/radiolabel mixture to the receptor-coated flash plates. Wrapped the plates in aluminum foil and incubate at +4° C. over night.
(§3) Aspirated wells, and wash the flashed plates. Sealed the plate. Measured the remaining radioactivity in the plate.

human LXRα = target: T2, human LXRα (Homo sapiens, UniProt Q13133); assay: Ligand-binding test procedure for human LXRα (3H T0901317 tracer, flash plates); conditions: biotinylated hLXRα from E. coli extract; tracer 3H T0901317
T2 construct: biotin (biotinylated); made in house; host or cells: E. coli (crude extract)
T2 sequence (Q13133 1-447): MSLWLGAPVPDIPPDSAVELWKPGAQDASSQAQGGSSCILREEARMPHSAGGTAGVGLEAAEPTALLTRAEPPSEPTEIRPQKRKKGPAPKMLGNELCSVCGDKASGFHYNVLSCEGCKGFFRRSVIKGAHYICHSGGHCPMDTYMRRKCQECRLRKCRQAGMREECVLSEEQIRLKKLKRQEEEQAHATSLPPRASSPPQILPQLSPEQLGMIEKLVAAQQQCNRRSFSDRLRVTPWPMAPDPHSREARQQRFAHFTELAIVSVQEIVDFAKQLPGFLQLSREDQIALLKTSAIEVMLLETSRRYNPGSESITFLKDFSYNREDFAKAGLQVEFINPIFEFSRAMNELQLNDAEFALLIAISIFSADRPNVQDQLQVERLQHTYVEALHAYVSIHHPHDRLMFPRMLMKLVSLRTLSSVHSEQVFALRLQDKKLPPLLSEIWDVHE
Procedure: II. Ligand-Binding Test Procedure for Human LXRα.
Receptor source: E. coli extract from cells expressing biotinylated hLXRα. Extract was made in a similar buffer as above, but with 50 mM TRIS.
as §1, §2, §3

| IC50 (human LXRβ) | IC50 (human LXRα) | SMILES |
| --- | --- | --- |
| 345 nM | > 1000 nM | CCS(=O)(=O)c1cccc(Oc2ccc(-c3c(C(C)C)nc4c(Cl)cccn34)cc2)c1 [Example 122, 8-chloro-3-{4-[3-(ethylsulfonyl)phenoxy]phenyl}-2-(1-methylethyl)imidazo[1,2-a]pyridine] |
| 409 nM | 920 nM | CCc1nc2c(Cl)cccn2c1-c1cccc(Oc2cccc(S(=O)(=O)N(Cc3ccc(OC)cc3)Cc3ccc(OC)cc3)c2)c1 [Example 42, 3-[3-(8-chloro-2-ethylimidazo[1,2-a]pyridin-3-yl)phenoxy]-N,N-bis(4-methoxybenzyl)benzenesulfonamide] |
| 4080 nM | > 1000 nM | CCc1nc2c(C(F)(F)F)cccn2c1-c1ccc(-c2ccc(S(C)(=O)=O)cc2)cc1 [Example 93, 2-ethyl-3-(4′-(methylsulfonyl)biphenyl-4-yl)-8-(trifluoromethyl)imidazo[1,2-a]pyridine] |
| 135 nM | 2640 nM | CCc1nc2c(C(F)(F)F)cccn2c1-c1ccc(-c2cccc(S(C)(=O)=O)c2)cc1 [Example 95, 2-ethyl-3-(3′-(methylsulfonyl)biphenyl-4-yl)-8-(trifluoromethyl)imidazo[1,2-a]pyridine] |
| > 1000 nM | > 1000 nM | CCc1nc2c(C(F)(F)F)cccn2c1-c1ccc(Cc2cccc(S(C)(=O)=O)c2)cc1 [Example 101, 2-ethyl-3-{4-[3-(methylsulfonyl)benzyl]phenyl}-8-(trifluoromethyl)imidazo[1,2-a]pyridine] |
| 1.7 nM | 15.8 nM | CC(C)S(=O)(=O)c1cccc(Oc2cccc(-c3c(Cc4ccccc4)nc4c(C(F)(F)F)cccn34)c2)c1 [Example 30, 2-benzyl-3-(3-(3-(isopropylsulfonyl)phenoxy)phenyl)-8-(trifluoromethyl)imidazo[1,2-a]pyridine] |
| 14.7 nM | 39.9 nM | CCc1nc2c(Cl)cccn2c1-c1cccc(Oc2cccc(S(=O)(=O)N(C)Cc3ccc(OC)cc3)c2)c1 [Example 43, 3-[3-(8-chloro-2-ethylimidazo[1,2-a]pyridin-3-yl)phenoxy]-N-(4-methoxybenzyl)-N-methylbenzenesulfonamide] |
| 740 nM | 7130 nM | CCc1nc2c(C(F)(F)F)cccn2c1-c1cccc(Oc2cccc(S(=O)(=O)CCC(C)(C)O)c2)c1 [Example 22, 4-(3-(3-(2-ethyl-8-(trifluoromethyl)imidazo[1,2-a]pyridin-3-yl)phenoxy)phenylsulfonyl)-2-methylbutan-2-ol] |
| 152 nM | 2390 nM | CC(C)(C)c1nc2c(C#N)cccn2c1-c1cccc(Oc2cccc(S(=O)(=O)CCCO)c2)c1 [Example 81, 2-tert-butyl-3-(3-{3-[(3-hydroxypropyl)sulfonyl]phenoxy}phenyl)imidazo[1,2-a]pyridine-8-carbonitrile] |
| 69 nM | 910 nM | CCc1nc2c(C(F)(F)F)cccn2c1-c1cccc(Oc2cccc(S(=O)(=O)CCCC#N)c2)c1 [Example 140, 4-[(3-{3-[2-ethyl-8-(trifluoromethyl)imidazo[1,2-a]pyridin-3-yl]phenoxy}phenyl)sulfonyl]butanenitrile] |
| > 1000 nM | > 1000 nM | CCc1nc2c(C(F)(F)F)cccn2c1-c1cccc(Oc2cccc(S(C)(=O)=O)c2)n1 [Example 88, 2-ethyl-3-{6-[3-(methylsulfonyl)phenoxy]pyridin-2-yl}-8-(trifluoromethyl)imidazo[1,2-a]pyridine] |
| 525 nM | 6250 nM | Cc1nc2c(C(F)(F)F)cccn2c1-c1cccc(Oc2cccc(S(=O)(=O)CCC(C)(C)O)c2)c1 [Example 14, 2-methyl-4-[(3-{3-[2-methyl-8-(trifluoromethyl)imidazo[1,2-a]pyridin-3-yl]phenoxy}phenyl)sulfonyl]butan-2-ol] |
| > 1000 nM | > 1000 nM | CCc1nc2c(C#N)cccn2c1-c1cccc(OCc2ccc(S(C)(=O)=O)cc2)c1 [Example 58, 2-ethyl-3-(3-{[4-(methylsulfonyl)benzyl]oxy}phenyl)imidazo[1,2-a]pyridine-8-carbonitrile] |
| 3650 nM | 10200 nM | CC(C)c1nc2c(Cl)cccn2c1-c1cccc(Oc2ccc(S(N)(=O)=O)cc2)c1 [Example 39, 4-(3-(8-chloro-2-isopropylimidazo[1,2-a]pyridin-3-yl)phenoxy)benzenesulfonamide] |
| 460 nM | > 1000 nM | CC(C)c1nc2c(Cl)cccn2c1-c1ccc(Oc2cccc(S(C)(=O)=O)c2)cc1 [Example 121, 8-chloro-2-(1-methylethyl)-3-{4-[3-(methylsulfonyl)phenoxy]phenyl}imidazo[1,2-a]pyridine] |
| 1.3 nM | 10 nM | CCS(=O)(=O)c1cccc(Oc2cccc(-c3c(Cc4ccccc4)nc4c(C(F)(F)F)cccn34)c2)c1 [Example 29, 2-benzyl-3-(3-(3-(ethylsulfonyl)phenoxy)phenyl)-8-(trifluoromethyl)imidazo[1,2-a]pyridine] |
| > 1000 nM | > 1000 nM | Cc1nc2c(C(F)(F)F)cccn2c1-c1cccc(Oc2ccc(C#N)c(S(C)(=O)=O)c2)c1 [Example 142, 2-(methylsulfonyl)-4-{3-[2-methyl-8-(trifluoromethyl)imidazo[1,2-a]pyridin-3-yl]phenoxy}benzonitrile] |
| 4190 nM | 36500 nM | CC(C)c1nc2c(C(F)(F)F)cccn2c1-c1cccc(OCc2ccc(S(C)(=O)=O)cc2)c1 [Example 56, 2-isopropyl-3-(3-{[4-(methylsulfonyl)benzyl]oxy}phenyl)-8-(trifluoromethyl)imidazo[1,2-a]pyridine] |
| > 1000 nM | > 1000 nM | CC(C)c1nc2c(C#N)cccn2c1-c1cccc(OCc2ccc(S(C)(=O)=O)cc2)c1 [Example 59, 2-isopropyl-3-(3-{[4-(methylsulfonyl)benzyl]oxy}phenyl)imidazo[1,2-a]pyridine-8-carbonitrile] |
| 137 nM | 1860 nM | CC(C)c1nc2c(Cl)cccn2c1-c1cccc(OCc2cccc(S(C)(=O)=O)c2)c1 [Example 53, 8-chloro-2-isopropyl-3-(3-{[3-(methylsulfonyl)benzyl]oxy}phenyl)imidazo[1,2-a]pyridine] |
| 119 nM | 1880 nM | Cc1nc2c(C(F)(F)F)cccn2c1-c1cccc(Oc2cc(F)cc(S(C)(=O)=O)c2)c1 [Example 15, 3-{3-[3-fluoro-5-(methylsulfonyl)phenoxy]phenyl}-2-methyl-8-(trifluoromethyl)imidazo[1,2-a]pyridine] |
| 6.1 nM | 160 nM | CC(C)S(=O)(=O)c1cccc(Oc2cccc(-c3c(C(C)(C)C)nc4c(C(F)(F)F)cccn34)c2)c1 [Example 77, 2-tert-butyl-3-{3-[3-(isopropylsulfonyl)phenoxy]phenyl}-8-(trifluoromethyl)imidazo[1,2-a]pyridine] |
| 91.5 nM | 2810 nM | CNCCCS(=O)(=O)c1cccc(Oc2cccc(-c3c(C(C)C)nc4c(C(F)(F)F)cccn34)c2)c1 [Example 62, 3-[(3-{3-[2-isopropyl-8-(trifluoromethyl)imidazo[1,2-a]pyridin-3-yl]phenoxy}phenyl)sulfonyl]-N-methylpropan-1-amine] |
| 143 nM | 1480 nM | CCCS(=O)(=O)c1cccc(Oc2cccc(-c3c(C)nc4c(C(F)(F)F)cccn34)c2)c1 [Example 11, 2-methyl-3-(3-(3-(propylsulfonyl)phenoxy)phenyl)-8-(trifluoromethyl)imidazo[1,2-a]pyridine] |
| > 1000 nM | > 1000 nM | CCc1nc2c(C#N)cccn2c1-c1cccc(Oc2cccc(S(=O)(=O)N(Cc3ccc(OC)cc3)Cc3ccc(OC)cc3)c2)c1 [Example 45, 3-[3-(8-cyano-2-ethylimidazo[1,2-a]pyridin-3-yl)phenoxy]-N,N-bis(4-methoxybenzyl)benzenesulfonamide] |
| 230 nM | > 1000 nM | Cc1nccn1Cc1nc2c(C(F)(F)F)cccn2c1-c1cccc(Oc2cccc(S(C)(=O)=O)c2)c1 [Example 130, 2-[(2-methyl-1H-imidazol-1-yl)methyl]-3-{3-[3-(methylsulfonyl)phenoxy]phenyl}-8-(trifluoromethyl)imidazo[1,2-a]pyridine] |
